Assay results as given in patent US10246486B2, “Macrocyclic inhibitors of flaviviridae viruses” (Gilead Sciences, Inc., priority 2012, dated 2019).

What was measured:
[1] = molecular target: cyclophilin A (Homo sapiens, UniProt P62937); test: biochemical
[2] = system: HCV replicon 1a (human hepatoma Huh-7 cell line harboring a HCV replicon); test: microbe, parasite or virus in culture; type: cell-based

cyclophilin A, sequence (P62937 whole entry, species assumed): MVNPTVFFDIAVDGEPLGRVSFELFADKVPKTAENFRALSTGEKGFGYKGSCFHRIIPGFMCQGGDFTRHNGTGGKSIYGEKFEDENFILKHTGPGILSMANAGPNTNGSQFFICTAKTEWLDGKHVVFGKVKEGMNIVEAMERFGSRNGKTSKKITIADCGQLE

Row | Compound | IC50 [1] | Replicon 1a % inhibition at 1 μm [2]
1 | CC(C)[C@@H]1NC(=O)/C=C\c2cc3cc(ccc3cn2)[C@@H](C)NC(=O)[C@@H]2CCCN(N2)C(=O)[C@H](C)NC1=O [Example 12] | 1000 to 10000 nM | 
2 | CC(C)[C@@H]1NC(=O)[C@@H]([C@H](C)O)/C=C/c2ccc3ccc(nc3c2)[C@@H](C)OC(=O)[C@@H]2CCCN(N2)C(=O)[C@H](C)NC1=O [Example 31] | < 100 nM | 
3 | C[C@@H]1NC(=O)[C@H](CCn2cc(CO)nn2)NC(=O)C(C)(C)/C=C/c2cc3cc(ccc3cn2)[C@@H](C)OC(=O)[C@@H]2CCCN(N2)C1=O [Compound 72] |  | 0%
